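Each compound was tested at five concentrations against cells in 96-well plates for 48 hours. TGI is the concentration that stops growth completely.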
test system: SR leukemia; test: NCI anticancer screen, dose series, 48 h

Row | Structure (SMILES) | TGI [µM]
1 | Nc1nc(Cl)c(N)c(NC23CC4CC(CC(C4)C2)C3)n1 | > 22.2

test system: SW-620 colon; test: NCI anticancer screen, dose series, 48 h

Row | Structure (SMILES) | TGI [µM]
2 | CCOC(=O)C1(Cc2ccc3c(c2)CCC3)Cc2cc3c(cc2C1)CCC3 | > 100
3 | C=CCNC1=C2C[C@@H](C)C[C@@H](OC)[C@H](OC(=O)CCCCN)[C@H](C)/C=C(\C)[C@@H](OC(N)=O)[C@H](OC)/C=C\C=C(/C)C(=O)NC(=CC1=O)C2=O | 55.1
4 | C[C@@H]1C[C@H]2[C@@H]3CCC4=CC(=O)C=C[C@]4(C)[C@@]3(Cl)[C@@H](Cl)C[C@]2(C)[C@@]1(O)C(=O)COP(=O)(O)O | > 100
5 | O=Cc1cc2c(cc1-c1c(C=O)ccc3c1OCO3)OCO2 | > 10
6 | COC(=O)Cc1cc(O)c(C/C=C(\C)CC/C=C(\C)C(O)C(=O)C=C(C)C)cc1O (stereo not drawn) | 87.8
7 | COc1ccc(/C=C(/C(=O)c2ccc(Cl)cc2)N2C=CC=CC2=C(C#N)C#N)cc1OC | > 32.9
8 | Nc1nc(Cl)c(N)c(NC23CC4CC(CC(C4)C2)C3)n1 | 2.94

test system: T-47D breast; test: NCI anticancer screen, dose series, 48 h

Row | Structure (SMILES) | TGI [µM]
9 | CCOC(=O)C1(Cc2ccc3c(c2)CCC3)Cc2cc3c(cc2C1)CCC3 | 50.7
10 | C=CCNC1=C2C[C@@H](C)C[C@@H](OC)[C@H](OC(=O)CCCCN)[C@H](C)/C=C(\C)[C@@H](OC(N)=O)[C@H](OC)/C=C\C=C(/C)C(=O)NC(=CC1=O)C2=O | 29.9
11 | C[C@@H]1C[C@H]2[C@@H]3CCC4=CC(=O)C=C[C@]4(C)[C@@]3(Cl)[C@@H](Cl)C[C@]2(C)[C@@]1(O)C(=O)COP(=O)(O)O | > 100
12 | O=Cc1cc2c(cc1-c1c(C=O)ccc3c1OCO3)OCO2 | > 10
13 | COC(=O)Cc1cc(O)c(C/C=C(\C)CC/C=C(\C)C(O)C(=O)C=C(C)C)cc1O (stereo not drawn) | 43.2
14 | COc1ccc(/C=C(/C(=O)c2ccc(Cl)cc2)N2C=CC=CC2=C(C#N)C#N)cc1OC | 29.4
15 | Nc1nc(Cl)c(N)c(NC23CC4CC(CC(C4)C2)C3)n1 | 3.61

test system: TK-10 renal; test: NCI anticancer screen, dose series, 48 h

Row | Structure (SMILES) | TGI [µM]
16 | CCOC(=O)C1(Cc2ccc3c(c2)CCC3)Cc2cc3c(cc2C1)CCC3 | > 100
17 | C=CCNC1=C2C[C@@H](C)C[C@@H](OC)[C@H](OC(=O)CCCCN)[C@H](C)/C=C(\C)[C@@H](OC(N)=O)[C@H](OC)/C=C\C=C(/C)C(=O)NC(=CC1=O)C2=O | 29
18 | C[C@@H]1C[C@H]2[C@@H]3CCC4=CC(=O)C=C[C@]4(C)[C@@]3(Cl)[C@@H](Cl)C[C@]2(C)[C@@]1(O)C(=O)COP(=O)(O)O | > 100
19 | O=Cc1cc2c(cc1-c1c(C=O)ccc3c1OCO3)OCO2 | > 10
20 | COc1ccc(/C=C(/C(=O)c2ccc(Cl)cc2)N2C=CC=CC2=C(C#N)C#N)cc1OC | 17.8
21 | Nc1nc(Cl)c(N)c(NC23CC4CC(CC(C4)C2)C3)n1 | 5.54

test system: U251 CNS; test: NCI anticancer screen, dose series, 48 h

Row | Structure (SMILES) | TGI [µM]
22 | CCOC(=O)C1(Cc2ccc3c(c2)CCC3)Cc2cc3c(cc2C1)CCC3 | > 100
23 | C=CCNC1=C2C[C@@H](C)C[C@@H](OC)[C@H](OC(=O)CCCCN)[C@H](C)/C=C(\C)[C@@H](OC(N)=O)[C@H](OC)/C=C\C=C(/C)C(=O)NC(=CC1=O)C2=O | 22.8
24 | C[C@@H]1C[C@H]2[C@@H]3CCC4=CC(=O)C=C[C@]4(C)[C@@]3(Cl)[C@@H](Cl)C[C@]2(C)[C@@]1(O)C(=O)COP(=O)(O)O | > 100
25 | O=Cc1cc2c(cc1-c1c(C=O)ccc3c1OCO3)OCO2 | > 10
26 | COC(=O)Cc1cc(O)c(C/C=C(\C)CC/C=C(\C)C(O)C(=O)C=C(C)C)cc1O (stereo not drawn) | 35.7
27 | COc1ccc(/C=C(/C(=O)c2ccc(Cl)cc2)N2C=CC=CC2=C(C#N)C#N)cc1OC | 24.4
28 | Nc1nc(Cl)c(N)c(NC23CC4CC(CC(C4)C2)C3)n1 | 3.06

test system: UACC-257 melanoma; test: NCI anticancer screen, dose series, 48 h

Row | Structure (SMILES) | TGI [µM]
29 | CCOC(=O)C1(Cc2ccc3c(c2)CCC3)Cc2cc3c(cc2C1)CCC3 | 86.2
30 | C=CCNC1=C2C[C@@H](C)C[C@@H](OC)[C@H](OC(=O)CCCCN)[C@H](C)/C=C(\C)[C@@H](OC(N)=O)[C@H](OC)/C=C\C=C(/C)C(=O)NC(=CC1=O)C2=O | 18.9
31 | C[C@@H]1C[C@H]2[C@@H]3CCC4=CC(=O)C=C[C@]4(C)[C@@]3(Cl)[C@@H](Cl)C[C@]2(C)[C@@]1(O)C(=O)COP(=O)(O)O | > 100
32 | O=Cc1cc2c(cc1-c1c(C=O)ccc3c1OCO3)OCO2 | > 10
33 | COC(=O)Cc1cc(O)c(C/C=C(\C)CC/C=C(\C)C(O)C(=O)C=C(C)C)cc1O (stereo not drawn) | 77.6
34 | COc1ccc(/C=C(/C(=O)c2ccc(Cl)cc2)N2C=CC=CC2=C(C#N)C#N)cc1OC | 17.2
35 | Nc1nc(Cl)c(N)c(NC23CC4CC(CC(C4)C2)C3)n1 | 7.16

test system: UACC-62 melanoma; test: NCI anticancer screen, dose series, 48 h

Row | Structure (SMILES) | TGI [µM]
36 | CCOC(=O)C1(Cc2ccc3c(c2)CCC3)Cc2cc3c(cc2C1)CCC3 | > 100
37 | C=CCNC1=C2C[C@@H](C)C[C@@H](OC)[C@H](OC(=O)CCCCN)[C@H](C)/C=C(\C)[C@@H](OC(N)=O)[C@H](OC)/C=C\C=C(/C)C(=O)NC(=CC1=O)C2=O | 27.7
38 | C[C@@H]1C[C@H]2[C@@H]3CCC4=CC(=O)C=C[C@]4(C)[C@@]3(Cl)[C@@H](Cl)C[C@]2(C)[C@@]1(O)C(=O)COP(=O)(O)O | > 100
39 | O=Cc1cc2c(cc1-c1c(C=O)ccc3c1OCO3)OCO2 | > 10
40 | COC(=O)Cc1cc(O)c(C/C=C(\C)CC/C=C(\C)C(O)C(=O)C=C(C)C)cc1O (stereo not drawn) | 44.4
41 | COc1ccc(/C=C(/C(=O)c2ccc(Cl)cc2)N2C=CC=CC2=C(C#N)C#N)cc1OC | 28.2
42 | Nc1nc(Cl)c(N)c(NC23CC4CC(CC(C4)C2)C3)n1 | 3.64

test system: UO-31 renal; test: NCI anticancer screen, dose series, 48 h

Row | Structure (SMILES) | TGI [µM]
43 | CCOC(=O)C1(Cc2ccc3c(c2)CCC3)Cc2cc3c(cc2C1)CCC3 | > 100
44 | C=CCNC1=C2C[C@@H](C)C[C@@H](OC)[C@H](OC(=O)CCCCN)[C@H](C)/C=C(\C)[C@@H](OC(N)=O)[C@H](OC)/C=C\C=C(/C)C(=O)NC(=CC1=O)C2=O | 34.2
45 | C[C@@H]1C[C@H]2[C@@H]3CCC4=CC(=O)C=C[C@]4(C)[C@@]3(Cl)[C@@H](Cl)C[C@]2(C)[C@@]1(O)C(=O)COP(=O)(O)O | > 100
46 | COC(=O)Cc1cc(O)c(C/C=C(\C)CC/C=C(\C)C(O)C(=O)C=C(C)C)cc1O (stereo not drawn) | 46
47 | COc1ccc(/C=C(/C(=O)c2ccc(Cl)cc2)N2C=CC=CC2=C(C#N)C#N)cc1OC | 3.44
48 | Nc1nc(Cl)c(N)c(NC23CC4CC(CC(C4)C2)C3)n1 | 3.55

— PubChem BioAssay (NCI)
